# Measured values taken from US11473055B2, “Virus-free cell lines and methods for obtaining same” (Glycobac, LLC, priority 2015, dated 2022).
# Assays:
# Tn-nodavirus = Tn-nodavirus RT-PCR/nested PCR of single TN-368 cell subclones treated with ribavirin; format: cell-based, Trichoplusia ni; settings: single TN-368 cell subclone, 200 μg/mL, about a month (FIG. 14)
# Description: Example 15. Exemplary method for obtaining an established T. ni cell line that lacks virus. After discovering polyclonal TN-368 cell cultures treated with antiviral drug cocktails remained Tn-nodavirus-positive, we employed a disclosed method for obtaining a virus-free cell line. […] The first culture composition was cultured for about a month with ad hoc amplification to produce progressively larger cultures and, after achieving the 25 cm^2 flask level, samples were tested for Tn-nodavirus by RT-PCR, followed by nested PCR, as described in Example 16. […] The clone, designated Tn-NVN passage zero (PO), was adapted to serum-free ESF 921 medium and grown in suspension. The Tn-NVN cell line was subsequently maintained in this second culture composition and growth format.
# Sf-rhabdovirus [1] = tested on: Sf-rhabdovirus
# Sf-rhabdovirus [2] = test: Sf-rhabdovirus RT-PCR/nested PCR of single Sf9 cell subclones isolated by limiting dilution and treated with antiviral drugs; format: cell-based, Spodoptera frugiperda; settings: single Sf9 cell subclone, 10 μg/ml, about a month (FIG. 2B)
# Description: Example 3. Exemplary method for obtaining an established Sf cell line characterized by a lack of virus. […] This exemplary embodiment comprised isolating single Sf9 cells by limiting dilution, then treating the isolated cell subclones with antiviral drugs. […] The cells were cultured for about a month with ad hoc amplification to produce progressively larger cultures and, after achieving the 25 cm^2 flask level, samples were tested for Sf-rhabdovirus contamination by PCR, as described in Example 4. A clone lacking Sf-rhabdovirus contamination (FIG. 2B) was transferred to media lacking antiviral drugs, designated Sf-RVN passage zero (PO) and, at P2, transferred to a shake-flask culture in serum-free ESF 921 medium and subsequently maintained in this culture medium and format.
# Example 4. Sf-rhabdovirus-specific Reverse Transcription-PCR (RT-PCR)/nested PCR. […] One μL of each primary PCR (RT-PCR) was then used as the template for secondary PCR's (RT-PCR/nested PCR) under the same conditions, except the primers were nested Sf-rhabdovirus-specific primers Mono-1i (SEQ ID NO: 7) and Mono-2i (SEQ ID NO: 8).
SMILES,Tn-nodavirus RNA by RT-PCR followed by nested PCR (Tn-nodavirus),"Sf-rhabdovirus RNA by RT-PCR (Sf-rhabdovirus [1]; polyclonal Sf9 cells, 100 μg/ml, about a month, still in presence of drug (FIG. 1A))",Sf-rhabdovirus RNA by RT-PCR/nested PCR after transfer to drug-free medium (Sf-rhabdovirus [1]; ribavirin-treated Sf9 cells transferred to culture medium lacking antiviral drugs (FIG. 1B)),Sf-rhabdovirus RNA by RT-PCR followed by nested PCR (Sf-rhabdovirus [2])
NC(=O)c1ncn([C@@H]2O[C@H](CO)[C@@H](O)[C@H]2O)n1 [ribavirin],lacking Tn-nodavirus,no RT-PCR-detectable Sf-rhabdovirus,reverted to the Sf-rhabdovirus-positive phenotype,
O=c1cnn([C@@H]2O[C@H](CO)[C@@H](O)[C@H]2O)c(=O)[nH]1 [6-azauridine],,,,negative for Sf-rhabdovirus contamination
